Patent US9932314B2, “Pyrazole compounds and their use as T-type calcium channel blockers” (IDORSIA PHARMACEUTICALS LTD, priority 2015, dated 2018)

target: T1, voltage-dependent T-type calcium channel subunit alpha-1G (Cav3.2) (Homo sapiens, UniProt O95180); assay: FLIPR calcium flux assay, HEK293 cells recombinantly expressing Cav3.2; format: cell-based; settings: Cav3.2-channel, Fluo-4-AM, 3 min incubation, stimulation with 10 mM CaCl2
T1 construct: expressed in transfected cells; host or cells: HEK293
Method in brief: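 Calcium influx was triggered by adding CaCl2 to 10 mM final, 3 min after compounds in tetraethylammonium-based buffer, pH 7.2, reached Fluo-4-AM-loaded recombinant HEK293 cells. The integrated kinetic fluorescence signal per concentration gave concentration-response curves by non-linear sigmoidal regression.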

T1 sequence (O95180 whole entry): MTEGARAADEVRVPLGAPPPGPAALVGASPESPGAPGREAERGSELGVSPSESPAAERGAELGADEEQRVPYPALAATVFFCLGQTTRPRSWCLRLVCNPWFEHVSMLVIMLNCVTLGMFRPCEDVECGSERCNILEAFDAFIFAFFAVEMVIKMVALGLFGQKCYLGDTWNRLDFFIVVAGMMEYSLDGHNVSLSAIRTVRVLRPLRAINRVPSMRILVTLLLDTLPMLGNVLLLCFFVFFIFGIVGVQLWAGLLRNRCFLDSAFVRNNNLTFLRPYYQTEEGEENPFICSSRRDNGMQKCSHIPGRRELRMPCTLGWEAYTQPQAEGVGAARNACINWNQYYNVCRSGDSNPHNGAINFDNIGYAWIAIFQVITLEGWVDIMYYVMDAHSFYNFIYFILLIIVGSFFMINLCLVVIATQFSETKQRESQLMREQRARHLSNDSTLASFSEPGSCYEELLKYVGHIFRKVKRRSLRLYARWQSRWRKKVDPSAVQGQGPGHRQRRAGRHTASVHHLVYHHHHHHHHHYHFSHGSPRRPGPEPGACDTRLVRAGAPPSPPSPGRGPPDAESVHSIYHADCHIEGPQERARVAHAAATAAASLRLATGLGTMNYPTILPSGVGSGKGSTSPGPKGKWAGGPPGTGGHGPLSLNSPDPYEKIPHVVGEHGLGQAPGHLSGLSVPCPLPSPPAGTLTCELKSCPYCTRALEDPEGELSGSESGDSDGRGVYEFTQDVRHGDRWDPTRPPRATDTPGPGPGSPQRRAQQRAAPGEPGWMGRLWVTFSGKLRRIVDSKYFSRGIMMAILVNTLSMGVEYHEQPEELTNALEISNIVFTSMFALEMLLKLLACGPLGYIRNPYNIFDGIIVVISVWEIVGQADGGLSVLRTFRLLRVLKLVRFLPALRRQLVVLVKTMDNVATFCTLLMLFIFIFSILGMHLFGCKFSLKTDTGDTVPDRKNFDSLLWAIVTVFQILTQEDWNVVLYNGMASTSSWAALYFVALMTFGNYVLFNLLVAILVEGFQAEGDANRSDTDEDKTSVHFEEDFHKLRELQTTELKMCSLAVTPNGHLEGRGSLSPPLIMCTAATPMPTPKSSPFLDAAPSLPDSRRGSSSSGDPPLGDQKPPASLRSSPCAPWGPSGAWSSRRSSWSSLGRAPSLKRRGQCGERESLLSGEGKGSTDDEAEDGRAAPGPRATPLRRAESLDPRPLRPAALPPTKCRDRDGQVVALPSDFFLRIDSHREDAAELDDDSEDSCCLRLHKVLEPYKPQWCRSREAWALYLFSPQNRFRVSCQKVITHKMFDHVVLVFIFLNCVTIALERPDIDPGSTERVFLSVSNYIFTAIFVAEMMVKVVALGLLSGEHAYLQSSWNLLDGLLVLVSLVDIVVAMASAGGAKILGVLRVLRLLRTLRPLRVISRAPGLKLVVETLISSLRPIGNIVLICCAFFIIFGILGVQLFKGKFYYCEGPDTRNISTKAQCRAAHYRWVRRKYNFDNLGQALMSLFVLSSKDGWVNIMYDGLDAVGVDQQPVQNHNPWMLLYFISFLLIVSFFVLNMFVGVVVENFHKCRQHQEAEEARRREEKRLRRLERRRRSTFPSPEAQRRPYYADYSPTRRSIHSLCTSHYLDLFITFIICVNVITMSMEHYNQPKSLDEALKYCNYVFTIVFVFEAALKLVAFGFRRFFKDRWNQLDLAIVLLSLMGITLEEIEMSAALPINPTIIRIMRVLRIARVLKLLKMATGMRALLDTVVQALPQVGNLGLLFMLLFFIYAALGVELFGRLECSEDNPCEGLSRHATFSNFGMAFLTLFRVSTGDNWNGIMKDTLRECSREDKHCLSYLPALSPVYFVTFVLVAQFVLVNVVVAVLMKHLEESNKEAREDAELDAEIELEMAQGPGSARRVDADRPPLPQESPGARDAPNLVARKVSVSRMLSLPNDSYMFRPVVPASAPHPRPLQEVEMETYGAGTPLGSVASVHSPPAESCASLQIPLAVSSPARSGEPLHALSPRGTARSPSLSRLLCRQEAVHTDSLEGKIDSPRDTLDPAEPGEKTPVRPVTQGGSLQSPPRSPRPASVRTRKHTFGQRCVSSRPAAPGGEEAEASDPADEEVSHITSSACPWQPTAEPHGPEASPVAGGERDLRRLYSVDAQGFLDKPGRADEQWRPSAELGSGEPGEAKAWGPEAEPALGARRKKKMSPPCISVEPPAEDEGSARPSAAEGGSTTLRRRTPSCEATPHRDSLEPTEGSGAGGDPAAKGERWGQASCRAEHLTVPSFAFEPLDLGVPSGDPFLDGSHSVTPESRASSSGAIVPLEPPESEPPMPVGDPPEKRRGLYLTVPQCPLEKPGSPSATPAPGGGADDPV

SMILES | IC50 [nM]
N#Cc1ccc(Cn2ccc(NC(=O)Cc3ccc(C4(F)COC4)cc3)n2)nc1 [Example 246, N-[1-(5-Cyano-pyridin-2-ylmethyl)-1H-pyrazol-3-yl]-2-[4-(3-fluoro-oxetan-3-yl)-phenyl]-acetamide] | 705
N#Cc1ccc(Cn2ccc(NC(=O)Cc3ccc(OC4COC4)cc3)n2)nc1 [Example 247, N-[1-(5-Cyano-pyridin-2-ylmethyl)-1H-pyrazol-3-yl]-2-[4-(oxetan-3-yloxy)-phenyl]-acetamide] | 2590
N#Cc1ccc(Cn2ccc(NC(=O)Cc3ccc(OCC4(F)COC4)cc3)n2)nc1 [Example 248, N-[1-(5-Cyano-pyridin-2-ylmethyl)-1H-pyrazol-3-yl]-2-[4-(3-fluoro-oxetan-3-ylmethoxy)-phenyl]-acetamide] | 1810
Cn1ncc2cc(CC(=O)Nc3ccn(Cc4ccc(C#N)cn4)n3)ccc21 [Example 249, N-[1-(5-Cyano-pyridin-2-ylmethyl)-1H-pyrazol-3-yl]-2-(1-methyl-1H-indazol-5-yl)-acetamide] | 295
N#Cc1ccc(Cn2ccc(NC(=O)Cc3ccc(C4(F)COC4)cc3)n2)cc1 [Example 250, N-[1-(4-Cyano-benzyl)-1H-pyrazol-3-yl]-2-[4-(3-fluoro-oxetan-3-yl)-phenyl]-acetamide] | 127
N#Cc1ccc(Cn2ccc(NC(=O)Cc3ccc(OC4COC4)cc3)n2)cc1 [Example 251, N-[1-(4-Cyano-benzyl)-1H-pyrazol-3-yl]-2-[4-(oxetan-3-yloxy)-phenyl]-acetamide] | 303
N#Cc1ccc(Cn2ccc(NC(=O)Cc3ccc(OC4COC4)cc3)n2)cc1F [Example 254, N-[1-(4-Cyano-3-fluoro-benzyl)-1H-pyrazol-3-yl]-2-[4-(oxetan-3-yloxy)-phenyl]-acetamide] | 100
N#Cc1ccc(Cn2ccc(NC(=O)Cc3ccc(OCC4(F)COC4)cc3)n2)cc1 [Example 256, N-[1-(4-Cyano-benzyl)-1H-pyrazol-3-yl]-2-[4-(3-fluoro-oxetan-3-ylmethoxy)-phenyl]-acetamide] | 251
COC1(c2ccc(CC(=O)Nc3ccn(Cc4ccc(F)c(F)c4)n3)cn2)COC1 [Example 258, N-[1-(3,4-Difluoro-benzyl)-1H-pyrazol-3-yl]-2-[6-(3-methoxy-oxetan-3-yl)-pyridin-3-yl]-acetamide] | 934
N#Cc1ccc(Cn2ccc(NC(=O)Cc3ccc(OC4CC(F)(F)C4)cc3)n2)cc1F [Example 261, N-[1-(4-Cyano-3-fluoro-benzyl)-1H-pyrazol-3-yl]-2-[4-(3,3-difluoro-cyclobutoxy)-phenyl]-acetamide] | 15
N#Cc1ccc(Cn2ccc(NC(=O)Cc3ccc(OCC4COC4)cc3)n2)cc1F [Example 262, N-[1-(4-Cyano-3-fluoro-benzyl)-1H-pyrazol-3-yl]-2-[4-(oxetan-3-ylmethoxy)-phenyl]-acetamide] | 155
CC1(COc2ccc(CC(=O)Nc3ccn(Cc4ccc(C#N)c(F)c4)n3)cc2)COC1 [Example 263, N-[1-(4-Cyano-3-fluoro-benzyl)-1H-pyrazol-3-yl]-2-[4-(3-methyl-oxetan-3-ylmethoxy)-phenyl]-acetamide] | 97
N#Cc1cc(Cn2ccc(NC(=O)Cc3ccc(OC4COC4)cc3)n2)ccc1F [Example 269, N-[1-(3-Cyano-4-fluoro-benzyl)-1H-pyrazol-3-yl]-2-[4-(oxetan-3-yloxy)-phenyl]-acetamide] | 162
N#Cc1ccc(Cn2ccc(NC(=O)Cc3ccc(OC4CC(F)(F)C4)cc3)n2)cc1 [Example 273, N-[1-(4-Cyano-benzyl)-1H-pyrazol-3-yl]-2-[4-(3,3-difluoro-cyclobutoxy)-phenyl]-acetamide] | 35
N#Cc1ccc(Cn2ccc(NC(=O)Cc3ccc(OC4CC(F)(F)C4)cc3)n2)nc1 [Example 274, N-[1-(5-Cyano-pyridin-2-ylmethyl)-1H-pyrazol-3-yl]-2-[4-(3,3-difluoro-cyclobutoxy)-phenyl]-acetamide] | 133
N#Cc1ccc(Cn2ccc(NC(=O)Cc3ccc(N4CCCC4)nc3)n2)nc1 [Example 276, N-[1-(5-Cyano-pyridin-2-ylmethyl)-1H-pyrazol-3-yl]-2-(6-pyrrolidin-1-yl-pyridin-3-yl)-acetamide] | 188
N#Cc1cc(Cn2ccc(NC(=O)Cc3ccc(OCC4COC4)cc3)n2)ccc1F [Example 279, N-[1-(3-Cyano-4-fluoro-benzyl)-1H-pyrazol-3-yl]-2-[4-(oxetan-3-ylmethoxy)-phenyl]-acetamide] | 275
CC1(COc2ccc(CC(=O)Nc3ccn(Cc4ccc(F)c(C#N)c4)n3)cc2)COC1 [Example 280, N-[1-(3-Cyano-4-fluoro-benzyl)-1H-pyrazol-3-yl]-2-[4-(3-methyl-oxetan-3-ylmethoxy)-phenyl]-acetamide] | 138
N#Cc1cc(Cn2ccc(NC(=O)Cc3ccc(OC4CC(F)(F)C4)cc3)n2)ccc1F [Example 281, N-[1-(3-Cyano-4-fluoro-benzyl)-1H-pyrazol-3-yl]-2-[4-(3,3-difluoro-cyclobutoxy)-phenyl]-acetamide] | 21

Continued by falling IC50, values first:

IC50 [nM] | SMILES
90 | N#Cc1cc(Cn2ccc(NC(=O)Cc3ccc(OCC4(F)COC4)cc3)n2)ccc1F [Example 267, N-[1-(3-Cyano-4-fluoro-benzyl)-1H-pyrazol-3-yl]-2-[4-(3-fluoro-oxetan-3-ylmethoxy)-phenyl]-acetamide]
76 | N#Cc1ccc(Cn2ccc(NC(=O)Cc3ccc(OCC4(F)COC4)cc3)n2)cc1F [Example 257, N-[1-(4-Cyano-3-fluoro-benzyl)-1H-pyrazol-3-yl]-2-[4-(3-fluoro-oxetan-3-ylmethoxy)-phenyl]-acetamide]
57 | N#Cc1ccc(Cn2ccc(NC(=O)Cc3ccc(C4(F)COC4)cc3)n2)cc1F [Example 253, N-[1-(4-Cyano-3-fluoro-benzyl)-1H-pyrazol-3-yl]-2-[4-(3-fluoro-oxetan-3-yl)-phenyl]-acetamide]
56 | Cn1ncc2cc(CC(=O)Nc3ccn(Cc4ccc(C#N)cc4)n3)ccc21 [Example 252, N-[1-(4-Cyano-benzyl)-1H-pyrazol-3-yl]-2-(1-methyl-1H-indazol-5-yl)-acetamide]
52 | Cn1ncc2cc(CC(=O)Nc3ccn(Cc4ccc(C#N)c(F)c4)n3)ccc21 [Example 255, N-[1-(4-Cyano-3-fluoro-benzyl)-1H-pyrazol-3-yl]-2-(1-methyl-1H-indazol-5-yl)-acetamide]
51 | N#Cc1cc(Cn2ccc(NC(=O)Cc3ccc(C4(F)COC4)cc3)n2)ccc1F [Example 270, N-[1-(3-Cyano-4-fluoro-benzyl)-1H-pyrazol-3-yl]-2-[4-(3-fluoro-oxetan-3-yl)-phenyl]-acetamide]
39 | O=C(Cc1ccc(OCC2COC2)cc1)Nc1ccn(Cc2ccc(F)c(F)c2)n1 [Example 242, N-[1-(3,4-Difluoro-benzyl)-1H-pyrazol-3-yl]-2-[4-(oxetan-3-ylmethoxy)-phenyl]-acetamide]
37 | CC1(COc2ccc(CC(=O)Nc3ccn(Cc4ccc(F)c(F)c4)n3)cc2)CC(F)(F)C1 [Example 243, N-[1-(3,4-Difluoro-benzyl)-1H-pyrazol-3-yl]-2-[4-(3,3-difluoro-1-methyl-cyclobutylmethoxy)-phenyl]-acetamide]
35 | Cn1ncc2cc(CC(=O)Nc3ccn(Cc4ccc(F)c(C#N)c4)n3)ccc21 [Example 268, N-[1-(3-Cyano-4-fluoro-benzyl)-1H-pyrazol-3-yl]-2-(1-methyl-1H-indazol-5-yl)-acetamide]
33 | O=C(Cc1ccc(OCC2CC(F)(F)C2)cc1)Nc1ccn(Cc2ccc(F)c(F)c2)n1 [Example 244, N-[1-(3,4-Difluoro-benzyl)-1H-pyrazol-3-yl]-2-[4-(3,3-difluoro-cyclobutylmethoxy)-phenyl]-acetamide]
30 | O=C(Cc1ccc(OCC2(F)COC2)cc1)Nc1ccn(Cc2ccc(F)c(F)c2)n1 [Example 245, N-[1-(3,4-Difluoro-benzyl)-1H-pyrazol-3-yl]-2-[4-(3-fluoro-oxetan-3-ylmethoxy)-phenyl]-acetamide]
15 | N#Cc1ccc(Cn2ccc(NC(=O)Cc3ccc(C4(C(F)(F)F)CC4)cc3)n2)cc1F [Example 265, N-[1-(4-Cyano-3-fluoro-benzyl)-1H-pyrazol-3-yl]-2-[4-(1-trifluoromethyl-cyclopropyl)-phenyl]-acetamide]
15 | N#Cc1ccc(Cn2ccc(NC(=O)Cc3ccc(C4(C(F)(F)F)CC4)cc3)n2)cc1 [Example 277, N-[1-(4-Cyano-benzyl)-1H-pyrazol-3-yl]-2-[4-(1-trifluoromethyl-cyclopropyl)-phenyl]-acetamide]
14 | N#Cc1ccc(Cn2ccc(NC(=O)Cc3ccc(N4CCCC4)nc3)n2)cc1F [Example 275, N-[1-(4-Cyano-3-fluoro-benzyl)-1H-pyrazol-3-yl]-2-(6-pyrrolidin-1-yl-pyridin-3-yl)-acetamide]
6.6 | CC(C)c1ccc(CC(=O)Nc2ccn(Cc3ccc(C#N)c(F)c3)n2)cc1 [Example 266, N-[1-(4-Cyano-3-fluoro-benzyl)-1H-pyrazol-3-yl]-2-(4-isopropyl-phenyl)-acetamide]
5.4 | CC(C)(C)c1ccc(CC(=O)Nc2ccn(Cc3ccc(C#N)c(F)c3)n2)cc1 [Example 264, 2-(4-tert-Butyl-phenyl)-N-[1-(4-cyano-3-fluoro-benzyl)-1H-pyrazol-3-yl]-acetamide]
4.1 | Cc1cn(C)c2cc(CC(=O)Nc3ccn(Cc4ccc(F)c(F)c4)n3)ccc12 [Example 259, N-[1-(3,4-Difluoro-benzyl)-1H-pyrazol-3-yl]-2-(1,3-dimethyl-1H-indol-6-yl)-acetamide]
3.4 | CC(C)(C)c1ccc(CC(=O)Nc2ccn(Cc3ccc(C#N)cc3)n2)cc1 [Example 271, 2-(4-tert-Butyl-phenyl)-N-[1-(4-cyano-benzyl)-1H-pyrazol-3-yl]-acetamide]
3.1 | Cc1cn(C)c2ccc(CC(=O)Nc3ccn(Cc4ccc(F)c(F)c4)n3)cc12 [Example 260, N-[1-(3,4-Difluoro-benzyl)-1H-pyrazol-3-yl]-2-(1,3-dimethyl-1H-indol-5-yl)-acetamide]
